Like-named read-outs stand apart in the source and are kept apart here.
Test system: GM1 production in Jurkat cells
Assay: cells
Format: cell-based

SMILES	IC50 (Homo sapiens, Jurkat, 72 h) [nM]	IC50 [nM]
CCCOc1ccc(-c2ccc3c(c2)CC(C)(C)C3NC(=O)O[C@@H]2CN3CCC2CC3)cc1F (stereo partly drawn) [Example 216, (S)-quinuclidin-3-yl (5-(3-fluoro-4-propoxyphenyl)-2,2-dimethyl-2,3-dihydro-1H-inden-1-yl)carbamate]	28.7	
CC1(C)Cc2cc(-c3coc4ccccc34)ccc2C1NC(=O)O[C@@H]1CN2CCC1CC2 (stereo partly drawn) [Example 157, (S)-quinuclidin-3-yl (5-(benzofuran-3-yl)-2,2-dimethyl-2,3-dihydro-1H-inden-1-yl)carbamate]	2.8	
CC1(C)Cc2ccc(-c3cccc(OC(F)(F)F)c3)cc2C1NC(=O)O[C@@H]1CN2CCC1CC2 (stereo partly drawn) [Example 56, (S)-quinuclidin-3-yl (2,2-dimethyl-6-(3-(trifluoromethoxy)phenyl)-2,3-dihydro-1H-inden-1-yl)carbamate]		210
CC1(C)Cc2cc(-c3cccc(F)c3Cl)ccc2C1NC(=O)O[C@@H]1CN2CCC1CC2 (stereo partly drawn) [Example 237, (S)-quinuclidin-3-yl (5-(2-chloro-3-fluorophenyl)-2,2-dimethyl-2,3-dihydro-1H-inden-1-yl)carbamate]	29.2	
CC1(C)CC(NC(=O)O[C@@H]2CN3CCC2CC3)c2ccc(-c3cccc(C(F)(F)F)c3)cc21 (stereo partly drawn) [Example 401, (S)-quinuclidin-3-yl (3,3-dimethyl-5-(3-(trifluoromethyl)phenyl)-2,3-dihydro-1H-inden-1-yl)carbamate]	15.1	
CC1(C)Cc2ccc(-c3ccc(OC(F)(F)F)cc3)cc2C1NC(=O)O[C@@H]1CN2CCC1CC2 (stereo partly drawn) [Example 52, (S)-quinuclidin-3-yl (2,2-dimethyl-6-(4-(trifluoromethoxy)phenyl)-2,3-dihydro-1H-inden-1-yl)carbamate]	82.3	
COc1c(F)cccc1-c1ccc2c(c1)CC(C)(C)C2NC(=O)O[C@@H]1CN2CCC1CC2 (stereo partly drawn) [Example 236, (S)-quinuclidin-3-yl (5-(3-fluoro-2-methoxyphenyl)-2,2-dimethyl-2,3-dihydro-1H-inden-1-yl)carbamate]	32.4	
CC1(C)Cc2ccc(-c3cccc(OC(F)(F)F)c3)cc2C1NC(=O)O[C@@H]1CN2CCC1CC2 (stereo partly drawn) [Example 80, (S)-quinuclidin-3-yl (2,2-dimethyl-6-(3-(trifluoromethoxy)phenyl)-2,3-dihydro-1H-inden-1-yl)carbamate]		4.1
CC1(C)Cc2cc(-c3ccc(N4CCOCC4)c(Cl)c3)ccc2C1NC(=O)O[C@@H]1CN2CCC1CC2 (stereo partly drawn) [Example 153, (S)-quinuclidin-3-yl (5-(3-chloro-4-morpholinophenyl)-2,2-dimethyl-2,3-dihydro-1H-inden-1-yl)carbamate]	41.4	
CCC1(CC)Cc2cc(-c3ccc(C(C)(C)C)cc3)ccc2C1NC(=O)O[C@@H]1CN2CCC1CC2 (stereo partly drawn) [Example 279, (S)-quinuclidin-3-yl (5-(4-(tert-butyl)phenyl)-2,2-diethyl-2,3-dihydro-1H-inden-1-yl)carbamate]	7.3	
CC(C)Oc1ccc(F)c(-c2ccc3c(c2)CC(C)(C)C3NC(=O)O[C@@H]2CN3CCC2CC3)c1 (stereo partly drawn) [Example 172, (S)-quinuclidin-3-yl (5-(2-fluoro-5-isopropoxyphenyl)-2,2-dimethyl-2,3-dihydro-1H-inden-1-yl)carbamate]	48.5	
O=C(NC1CCc2cc(-c3ccc(F)c(F)c3F)ccc21)O[C@@H]1CN2CCC1CC2 (stereo partly drawn) [Example 20, (S)-quinuclidin-3-yl (5-(2,3,4-trifluorophenyl)-2,3-dihydro-1H-inden-1-yl)carbamate]	126	
COc1ccc(-c2ccc3c(c2)CC(C)(C)C3NC(=O)O[C@@H]2CN3CCC2CC3)c(OC)c1 (stereo partly drawn) [Example 166, (S)-quinuclidin-3-yl (5-(2,4-dimethoxyphenyl)-2,2-dimethyl-2,3-dihydro-1H-inden-1-yl)carbamate]	26.3	
Cc1cc(-c2cc3c(cc2F)C(NC(=O)O[C@@H]2CN4CCC2CC4)C(C)(C)C3)cc(C)c1OC(C)C (stereo partly drawn) [Example 388, (S)-quinuclidin-3-yl (6-fluoro-5-(4-isopropoxy-3,5-dimethylphenyl)-2,2-dimethyl-2,3-dihydro-1H-inden-1-yl)carbamate]	93.1	
CC1(C)Cc2cc(-c3cc(Cl)ccc3Cl)ccc2C1NC(=O)O[C@@H]1CN2CCC1CC2 (stereo partly drawn) [Example 93, (S)-quinuclidin-3-yl (5-(2,5-dichlorophenyl)-2,2-dimethyl-2,3-dihydro-1H-inden-1-yl)carbamate]	10.5	
CC(C)Oc1ccc(Cl)cc1-c1ccc2c(c1)CC(C)(C)C2NC(=O)O[C@@H]1CN2CCC1CC2 (stereo partly drawn) [Example 217, (S)-quinuclidin-3-yl (5-(5-chloro-2-isopropoxyphenyl)-2,2-dimethyl-2,3-dihydro-1H-inden-1-yl)carbamate]	72.1	
CCCCOc1c(C)cc(-c2cc3c(cc2F)C(NC(=O)O[C@@H]2CN4CCC2CC4)C(C)(C)C3)cc1C (stereo partly drawn) [Example 368, (S)-quinuclidin-3-yl (5-(4-butoxy-3,5-dimethylphenyl)-6-fluoro-2,2-dimethyl-2,3-dihydro-1H-inden-1-yl)carbamate]	22.9	
CCC1(CC)Cc2cc(-c3ccc(OC(C)C)c(Cl)c3)ccc2C1NC(=O)O[C@@H]1CN2CCC1CC2 (stereo partly drawn) [Example 311, (S)-quinuclidin-3-yl (5-(3-chloro-4-isopropoxyphenyl)-2,2-diethyl-2,3-dihydro-1H-inden-1-yl)carbamate]	27	

SMILES	IC50 (Homo sapiens, Jurkat, 72 h) [nM]	IC50 [nM]
CC1(C)Cc2cc(-c3ccc4c(c3)OC(F)(F)O4)ccc2C1NC(=O)O[C@@H]1CN2CCC1CC2 (stereo partly drawn) [Example 111, (S)-quinuclidin-3-yl (5-(2,2-difluorobenzo[d][1,3]dioxol-5-yl)-2,2-dimethyl-2,3-dihydro-1H-inden-1-yl)carbamate]	32	
CC(C)Cc1ccc(-c2cc3c(cc2F)C(NC(=O)O[C@@H]2CN4CCC2CC4)C(C)(C)C3)cc1 (stereo partly drawn) [Example 352, (S)-quinuclidin-3-yl (6-fluoro-5-(4-isobutylphenyl)-2,2-dimethyl-2,3-dihydro-1H-inden-1-yl)carbamate]	5.7	
CC(C)(C)c1ccc(-c2ccc3c(c2)CC(C)(C)C3NC(=O)O[C@@H]2CN3CCC2CC3)cc1 (stereo partly drawn) [Example 146, (S)-quinuclidin-3-yl (5-(4-(tert-butyl)phenyl)-2,2-dimethyl-2,3-dihydro-1H-inden-1-yl)carbamate]	14.1	
O=C(NC1CCc2cc(-c3cc(Cl)ccc3Cl)ccc21)O[C@@H]1CN2CCC1CC2 (stereo partly drawn) [Example 24, (S)-quinuclidin-3-yl (5-(2,5-dichlorophenyl)-2,3-dihydro-1H-inden-1-yl)carbamate]	17.4	
CC1(C)Cc2ccc(-c3cc(F)cc(F)c3)cc2C1NC(=O)O[C@@H]1CN2CCC1CC2 (stereo partly drawn) [Example 66, (S)-quinuclidin-3-yl (6-(3,5-difluorophenyl)-2,2-dimethyl-2,3-dihydro-1H-inden-1-yl)carbamate]	128	
COCOc1ccccc1-c1ccc2c(c1)CC(C)(C)C2NC(=O)O[C@@H]1CN2CCC1CC2 (stereo partly drawn) [Example 102, (S)-quinuclidin-3-yl (5-(2-(methoxymethoxy)phenyl)-2,2-dimethyl-2,3-dihydro-1H-inden-1-yl)carbamate]	17.4	
CCC1(CC)Cc2cc(-c3ccsc3)ccc2C1NC(=O)O[C@@H]1CN2CCC1CC2 (stereo partly drawn) [Example 306, (S)-quinuclidin-3-yl (2,2-diethyl-5-(thiophen-3-yl)-2,3-dihydro-1H-inden-1-yl)carbamate]	27.5	
COc1ccc(-c2ccc3c(c2)CC(C)(C)C3NC(=O)O[C@@H]2CN3CCC2CC3)c(C)c1 (stereo partly drawn) [Example 180, (S)-quinuclidin-3-yl (5-(4-methoxy-2-methylphenyl)-2,2-dimethyl-2,3-dihydro-1H-inden-1-yl)carbamate]	28.1	
CN(C)c1ccc(-c2ccc3c(c2)CC(C)(C)C3NC(=O)O[C@@H]2CN3CCC2CC3)cc1 (stereo partly drawn) [Example 132, (S)-quinuclidin-3-yl (5-(4-(dimethylamino)phenyl)-2,2-dimethyl-2,3-dihydro-1H-inden-1-yl)carbamate]	29.2	
O=C(NC1CCc2cc(-c3ccc(F)cc3)ccc21)O[C@@H]1CN2CCC1CC2 (stereo partly drawn) [Example 1, (S)-quinuclidin-3-yl (5-(4-fluorophenyl)-2,3-dihydro-1H-inden-1-yl)carbamate]	139	
O=C(NC1CCc2cc(-c3ccc(OC(F)(F)F)cc3)ccc21)O[C@@H]1CN2CCC1CC2 (stereo partly drawn) [Example 4, (S)-quinuclidin-3-yl (5-(4-(trifluoromethoxy)phenyl)-2,3-dihydro-1H-inden-1-yl)carbamate]	95.8	
COc1ccc(OC)c(-c2cc3c(cc2OC)C(NC(=O)O[C@@H]2CN4CCC2CC4)C(C)(C)C3)c1 (stereo partly drawn) [Example 344, (S)-quinuclidin-3-yl (5-(2,5-dimethoxyphenyl)-6-methoxy-2,2-dimethyl-2,3-dihydro-1H-inden-1-yl)carbamate]	51	
O=C(NC1c2ccc(-c3ccc(OC(F)(F)F)cc3)cc2CC12CC2)O[C@@H]1CN2CCC1CC2 (stereo partly drawn) [Example 392, (S)-quinuclidin-3-yl (5′-(4-(trifluoromethoxy)phenyl)-1′,3′-dihydrospiro[cyclopropane-1,2′-inden]-1′-yl)carbamate]	41.9	
O=C(NC1CCc2cc(-c3ccccc3OC(F)(F)F)ccc21)O[C@@H]1CN2CCC1CC2 (stereo partly drawn) [Example 12, (S)-quinuclidin-3-yl (5-(2-(trifluoromethoxy)phenyl)-2,3-dihydro-1H-inden-1-yl)carbamate]	73	
Cc1ccc(-c2ccc3c(c2)CC(C)(C)C3NC(=O)O[C@@H]2CN3CCC2CC3)cc1C (stereo partly drawn) [Example 227, (S)-quinuclidin-3-yl (5-(3,4-dimethylphenyl)-2,2-dimethyl-2,3-dihydro-1H-inden-1-yl)carbamate]	10.2	
COc1ccc(Cl)cc1-c1cc2c(cc1OC)C(NC(=O)O[C@@H]1CN3CCC1CC3)C(C)(C)C2 (stereo partly drawn) [Example 327, (S)-quinuclidin-3-yl (5-(5-chloro-2-methoxyphenyl)-6-methoxy-2,2-dimethyl-2,3-dihydro-1H-inden-1-yl)carbamate]	16.8	
O=C(NC1c2ccc(-c3ccc(F)cc3)cc2CC12CC2)O[C@@H]1CN2CCC1CC2 (stereo partly drawn) [Example 389, (S)-quinuclidin-3-yl (5′-(4-fluorophenyl)-1′,3′-dihydrospiro[cyclopropane-1,2′-inden]-1′-yl)carbamate]	76.5	
O=C(NC1CCc2ccc(-c3ccc(F)cc3F)cc21)O[C@@H]1CN2CCC1CC2 (stereo partly drawn) [Example 43, (S)-quinuclidin-3-yl (6-(2,4-difluorophenyl)-2,3-dihydro-1H-inden-1-yl)carbamate]	183	

— patent US12522602B2, “Derivatives having 2,3-dihydro-1H-indene or 2,3-dihydrobenzofuran moiety or pharmaceutically acceptable salt thereof and pharmaceutical compositions comprising the same” (YUHAN CORPORATION, priority 2019, dated 2026)
